The source made the active and inactive calls.
Experiments:
[1] = molecular target: Cyclin-dependent kinase 5/CDK5 activator 1 (Homo sapiens, UniProt Q00535); assay: blockade of human CDK5 activity – biochemical, cherry-picked samples, set 2, dose response (AID 504545)
Cytochrome P450 2C9 = Cytochrome P450 2C9 (Homo sapiens, UniProt P11712); details: Potency
[2] = molecular target: T1, Eukaryotic translation initiation factor 2-alpha kinase 3 (Homo sapiens, UniProt Q9NZJ5); assay: Dose response cell-based high-throughput screening assay to measure PERK inhibition. [Related pubchem assays: 1416 ]; type: functional
T1 sequence (Q9NZJ5 whole entry): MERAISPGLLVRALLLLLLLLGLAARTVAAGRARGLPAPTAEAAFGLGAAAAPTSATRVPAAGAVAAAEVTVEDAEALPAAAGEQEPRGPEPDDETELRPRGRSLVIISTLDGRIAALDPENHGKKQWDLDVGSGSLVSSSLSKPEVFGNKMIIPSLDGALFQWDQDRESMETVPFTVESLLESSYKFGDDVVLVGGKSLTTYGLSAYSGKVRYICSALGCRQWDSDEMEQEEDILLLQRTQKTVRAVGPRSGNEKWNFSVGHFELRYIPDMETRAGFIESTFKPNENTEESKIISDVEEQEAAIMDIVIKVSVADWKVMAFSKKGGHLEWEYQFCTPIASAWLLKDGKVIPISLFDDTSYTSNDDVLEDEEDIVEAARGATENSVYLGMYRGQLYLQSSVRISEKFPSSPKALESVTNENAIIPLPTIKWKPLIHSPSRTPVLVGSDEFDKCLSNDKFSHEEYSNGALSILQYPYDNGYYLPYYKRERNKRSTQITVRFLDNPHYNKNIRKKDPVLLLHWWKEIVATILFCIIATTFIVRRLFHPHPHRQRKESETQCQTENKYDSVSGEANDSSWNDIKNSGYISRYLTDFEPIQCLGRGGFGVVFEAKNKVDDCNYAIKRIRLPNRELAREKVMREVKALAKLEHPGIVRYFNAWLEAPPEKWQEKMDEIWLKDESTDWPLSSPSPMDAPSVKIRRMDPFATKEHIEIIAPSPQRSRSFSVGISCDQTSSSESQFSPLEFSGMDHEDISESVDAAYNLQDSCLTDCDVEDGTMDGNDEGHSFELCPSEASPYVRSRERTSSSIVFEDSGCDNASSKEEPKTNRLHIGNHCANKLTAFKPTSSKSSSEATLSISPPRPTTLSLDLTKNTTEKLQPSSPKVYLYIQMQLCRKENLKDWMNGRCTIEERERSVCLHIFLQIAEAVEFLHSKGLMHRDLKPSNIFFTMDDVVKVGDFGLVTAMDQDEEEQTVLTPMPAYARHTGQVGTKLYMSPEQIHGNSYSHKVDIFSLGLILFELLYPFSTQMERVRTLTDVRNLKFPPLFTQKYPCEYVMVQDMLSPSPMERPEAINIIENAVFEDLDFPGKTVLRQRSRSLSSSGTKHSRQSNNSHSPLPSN

[3] = molecular target: T1, Eukaryotic translation initiation factor 2-alpha kinase 3; assay: Counterscreen assay for PERK inhibitors: Dose response cell-based high throughput screening assay to measure inhibition of PERK at 6 hours. [Related pubchem assays: 1522, 1416 ]; type: functional
[4] = Cytotoxicity screening for potential Inhibitors of Bacterial Capsule Biogenesis. [Related pubchem assays (depositor defined):AID488970]; type: functional
Leucine aminopeptidase = molecular target: T2, Leucine aminopeptidase (Plasmodium falciparum 3D7, UniProt Q8IL11); assay: P. falciparum M17LAP inhibitors, primary screen, biochemical, fluorogenic H-Leu-NHMec substrate, 1536-well (AID 1619); type: functional
T2 sequence (Q8IL11 whole entry): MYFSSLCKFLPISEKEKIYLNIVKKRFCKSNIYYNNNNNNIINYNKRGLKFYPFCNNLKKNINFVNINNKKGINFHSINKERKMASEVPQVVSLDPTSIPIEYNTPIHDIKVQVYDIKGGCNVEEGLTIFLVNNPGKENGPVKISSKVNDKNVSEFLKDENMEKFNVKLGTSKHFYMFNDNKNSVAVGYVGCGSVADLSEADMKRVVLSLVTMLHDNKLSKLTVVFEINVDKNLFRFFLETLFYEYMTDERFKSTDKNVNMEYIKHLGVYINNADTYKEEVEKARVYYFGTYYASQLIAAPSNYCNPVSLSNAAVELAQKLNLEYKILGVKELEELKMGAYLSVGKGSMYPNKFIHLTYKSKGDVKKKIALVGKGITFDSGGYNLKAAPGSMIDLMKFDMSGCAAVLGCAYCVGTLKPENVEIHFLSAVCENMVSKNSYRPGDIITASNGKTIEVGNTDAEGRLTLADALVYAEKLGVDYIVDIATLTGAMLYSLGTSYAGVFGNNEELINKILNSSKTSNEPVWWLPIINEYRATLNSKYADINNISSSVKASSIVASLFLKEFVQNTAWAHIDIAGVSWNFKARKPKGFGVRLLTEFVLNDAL

[5] = molecular target: T3, Tyrosine-protein phosphatase non-receptor type 7 (Homo sapiens, UniProt P35236); type: functional
T3 sequence (P35236 whole entry): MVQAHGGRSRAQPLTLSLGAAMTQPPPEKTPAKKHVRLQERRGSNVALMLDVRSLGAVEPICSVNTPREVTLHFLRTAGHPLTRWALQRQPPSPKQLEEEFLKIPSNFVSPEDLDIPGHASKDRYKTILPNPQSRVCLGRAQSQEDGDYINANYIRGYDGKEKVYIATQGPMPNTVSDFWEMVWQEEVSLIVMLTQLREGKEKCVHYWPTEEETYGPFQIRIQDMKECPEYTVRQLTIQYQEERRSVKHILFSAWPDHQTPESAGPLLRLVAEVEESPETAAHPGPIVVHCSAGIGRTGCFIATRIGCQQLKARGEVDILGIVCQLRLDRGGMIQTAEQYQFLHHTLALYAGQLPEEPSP

[6] = molecular target: Heat shock 70 kDa protein 1A (Homo sapiens, UniProt P0DMV8); assay: inhibition of Hsp70 binding activity – biochemical, fluorescence polarization, SAR follow-up (AID 1072)
Chain of Heat shock 70 kDa protein 1A (P0DMV8 whole entry): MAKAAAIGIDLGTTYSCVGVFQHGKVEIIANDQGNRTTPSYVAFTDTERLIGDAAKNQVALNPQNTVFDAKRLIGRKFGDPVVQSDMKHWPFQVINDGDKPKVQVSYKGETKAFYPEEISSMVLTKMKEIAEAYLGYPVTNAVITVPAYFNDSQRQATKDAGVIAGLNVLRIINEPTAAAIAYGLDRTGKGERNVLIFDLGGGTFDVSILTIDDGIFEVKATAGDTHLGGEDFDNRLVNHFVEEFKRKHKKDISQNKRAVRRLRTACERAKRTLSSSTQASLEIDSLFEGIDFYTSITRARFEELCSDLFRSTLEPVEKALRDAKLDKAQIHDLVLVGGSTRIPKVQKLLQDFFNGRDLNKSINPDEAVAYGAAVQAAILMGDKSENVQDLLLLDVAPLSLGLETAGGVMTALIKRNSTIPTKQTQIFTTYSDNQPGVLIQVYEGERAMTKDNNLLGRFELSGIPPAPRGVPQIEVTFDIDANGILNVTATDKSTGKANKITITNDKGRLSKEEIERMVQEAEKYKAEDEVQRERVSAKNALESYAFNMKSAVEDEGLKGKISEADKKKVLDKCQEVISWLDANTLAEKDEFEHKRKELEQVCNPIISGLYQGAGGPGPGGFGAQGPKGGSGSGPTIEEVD

[7] = molecular target: T4, Dual specificity protein phosphatase 6 (Rattus norvegicus, UniProt Q64346); type: functional
T4 sequence (Q64346 whole entry): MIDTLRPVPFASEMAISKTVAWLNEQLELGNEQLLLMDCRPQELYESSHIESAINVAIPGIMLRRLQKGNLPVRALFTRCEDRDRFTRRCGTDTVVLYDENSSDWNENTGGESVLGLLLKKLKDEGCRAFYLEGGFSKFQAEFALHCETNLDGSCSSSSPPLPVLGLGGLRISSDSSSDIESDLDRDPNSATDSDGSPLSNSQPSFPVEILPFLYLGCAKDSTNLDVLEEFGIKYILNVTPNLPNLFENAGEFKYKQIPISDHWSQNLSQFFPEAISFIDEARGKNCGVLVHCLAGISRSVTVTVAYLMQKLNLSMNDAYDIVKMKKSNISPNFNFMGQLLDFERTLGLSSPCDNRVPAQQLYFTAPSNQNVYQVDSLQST

[8] = molecular target: T4, Dual specificity protein phosphatase 6
[9] = molecular target: Heat shock cognate 71 kDa protein (Homo sapiens, UniProt P11142); assay: In Vitro Hsc70 Dose Response Fluorescence Polarization Assay. [Related pubchem assays: 1072 ]
Chain of Heat shock cognate 71 kDa protein (P11142 whole entry): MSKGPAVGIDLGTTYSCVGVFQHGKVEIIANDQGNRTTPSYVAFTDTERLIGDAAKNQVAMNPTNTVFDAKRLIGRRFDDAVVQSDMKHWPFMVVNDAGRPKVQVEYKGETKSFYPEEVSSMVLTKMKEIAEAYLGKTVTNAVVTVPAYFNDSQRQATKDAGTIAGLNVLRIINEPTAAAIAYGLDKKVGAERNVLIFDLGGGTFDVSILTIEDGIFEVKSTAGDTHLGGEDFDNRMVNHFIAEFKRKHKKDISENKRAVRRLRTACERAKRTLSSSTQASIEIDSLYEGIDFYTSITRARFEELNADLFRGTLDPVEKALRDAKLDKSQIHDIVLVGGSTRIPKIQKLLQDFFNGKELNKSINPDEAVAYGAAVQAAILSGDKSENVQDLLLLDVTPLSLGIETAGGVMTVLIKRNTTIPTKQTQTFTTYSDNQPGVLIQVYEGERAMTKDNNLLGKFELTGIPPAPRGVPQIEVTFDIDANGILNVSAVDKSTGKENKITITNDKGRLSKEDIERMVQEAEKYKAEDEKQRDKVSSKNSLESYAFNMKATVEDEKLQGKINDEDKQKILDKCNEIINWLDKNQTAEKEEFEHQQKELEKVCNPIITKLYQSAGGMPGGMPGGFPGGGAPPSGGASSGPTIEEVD

[10] = molecular target: Glyceraldehyde-3-phosphate dehydrogenase (Homo sapiens, UniProt P04406)
Chain of Glyceraldehyde-3-phosphate dehydrogenase (P04406 whole entry): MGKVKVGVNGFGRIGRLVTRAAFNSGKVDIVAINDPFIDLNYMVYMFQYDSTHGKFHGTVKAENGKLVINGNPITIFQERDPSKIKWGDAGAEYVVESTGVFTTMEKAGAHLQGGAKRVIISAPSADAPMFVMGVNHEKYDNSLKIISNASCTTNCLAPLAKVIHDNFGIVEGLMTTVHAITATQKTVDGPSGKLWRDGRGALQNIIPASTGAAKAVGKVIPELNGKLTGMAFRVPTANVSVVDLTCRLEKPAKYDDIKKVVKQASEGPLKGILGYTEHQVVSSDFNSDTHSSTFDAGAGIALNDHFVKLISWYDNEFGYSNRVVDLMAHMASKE

[11] = Vero E6 cell cytotoxicity, dose response, cytotoxicity control for non-replicating M. tuberculosis project, secondary assay (AID 492998); type: functional, VeroE6; details: Vero C1008
cells [12] = type: functional, cell-based
HEK293 = assay: EBV LMP1 TES2 canonical NF-kB signalling blockers – cell-based, HEK293, luciferase, cherry-pick, dose response (AID 588343); type: functional; details: Homo sapiens
[13] = molecular target: T5, Microphthalmia-associated transcription factor (Homo sapiens, UniProt O75030); assay: reducers of TRPM1 reporter luminescence, concentration series – cell-based, SK-MEL-5, cherry-picked, set 3, MITF inhibitor project, dose response (AID 493073); type: functional;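 further: SK-MEL-5 melanoma cells with luciferase driven by the MITF target TRPM1 promoter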
T5 sequence (O75030 whole entry): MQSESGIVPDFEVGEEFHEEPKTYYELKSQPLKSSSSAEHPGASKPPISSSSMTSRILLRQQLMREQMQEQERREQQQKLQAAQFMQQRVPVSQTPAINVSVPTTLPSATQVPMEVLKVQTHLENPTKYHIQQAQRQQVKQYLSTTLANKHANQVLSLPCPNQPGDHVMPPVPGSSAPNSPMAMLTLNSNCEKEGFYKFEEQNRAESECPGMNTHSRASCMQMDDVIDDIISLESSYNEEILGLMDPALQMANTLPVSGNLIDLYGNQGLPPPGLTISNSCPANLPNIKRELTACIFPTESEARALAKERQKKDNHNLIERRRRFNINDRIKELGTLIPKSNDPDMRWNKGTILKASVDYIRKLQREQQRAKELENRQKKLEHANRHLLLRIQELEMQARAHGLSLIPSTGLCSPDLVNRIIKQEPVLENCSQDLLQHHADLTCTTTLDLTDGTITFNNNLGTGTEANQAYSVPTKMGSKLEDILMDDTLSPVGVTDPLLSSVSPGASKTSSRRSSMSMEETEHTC

[14] = HEK-293T viability loss after treatment – luminescence, T-cell screen hits, cytotoxicity control for TCR NF-kB inhibitor project, dose response (AID 489026); type: functional, cell-based;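 further: cells exposed to compound about 14 hours before the viability readout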
[15] = Luminescence-based counterscreen assay for KLF5 inhibitors: dose response cell-based high throughput screening assay to identify cytotoxic compounds using the IEC-6 intestinal epithelial cell line. [Related pubchem assays: 1700 (Primary screen.), 1834 (Confirmation screen.), 1858 (Summary AID.), 1905 (Counterscreen.)]; type: functional
cells [16] = type: functional, cell-based; remark: listed apart in the source
[17] = THP-1 cell cytotoxicity, dose response, cytotoxicity control for non-replicating M. tuberculosis project (AID 489025); type: functional
[18] = Luminescence Cell-Based Dose Response HTS to Identify Inhibitors of 5'UTR Stem-Loop Driven Prion Protein mRNA Translation in H4 Neuroglioblastoma Cells. [Related pubchem assays: 1827 (Project Summary), 1813 (Primary HTS)]; type: functional
INS1 = assay: INS-1E survival protection against cytokine death – cell-based, luminescence, retest, dose response (AID 449756); type: functional; details: Rattus norvegicus;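 further: cell death triggered by IL-1 beta plus TNF-alpha plus IFN-gamma mixture; protective hits raise ATP signal compared with cytokine alone wells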
[19] = HepG2 cell cytotoxicity, dose response, cytotoxicity control for non-replicating M. tuberculosis project (AID 489018); type: functional; details: Mycobacterium tuberculosis
[20] = molecular target: Mothers against decapentaplegic homolog 3 (Homo sapiens, UniProt P84022); assay: blockers of Smad3 complex formation in lysate – cell lysate, secondary confirmation, chemiluminescent ELISA, HEK293 lysate, dose response (AID 1058); type: functional
Chain of Mothers against decapentaplegic homolog 3 (P84022 whole entry): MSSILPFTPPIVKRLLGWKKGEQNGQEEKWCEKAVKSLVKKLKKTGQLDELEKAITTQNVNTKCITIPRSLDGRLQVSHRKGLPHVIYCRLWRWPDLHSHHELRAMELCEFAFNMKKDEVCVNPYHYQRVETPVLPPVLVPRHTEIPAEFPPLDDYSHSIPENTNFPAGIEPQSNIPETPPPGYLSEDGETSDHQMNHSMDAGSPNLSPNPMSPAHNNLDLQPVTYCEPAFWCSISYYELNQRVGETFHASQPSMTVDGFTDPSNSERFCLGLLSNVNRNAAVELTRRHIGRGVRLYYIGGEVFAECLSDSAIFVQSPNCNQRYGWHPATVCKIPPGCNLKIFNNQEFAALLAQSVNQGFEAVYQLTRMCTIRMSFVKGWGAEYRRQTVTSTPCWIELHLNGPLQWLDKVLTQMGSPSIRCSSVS

Chain of Cytochrome P450 2C9 (P11712 whole entry): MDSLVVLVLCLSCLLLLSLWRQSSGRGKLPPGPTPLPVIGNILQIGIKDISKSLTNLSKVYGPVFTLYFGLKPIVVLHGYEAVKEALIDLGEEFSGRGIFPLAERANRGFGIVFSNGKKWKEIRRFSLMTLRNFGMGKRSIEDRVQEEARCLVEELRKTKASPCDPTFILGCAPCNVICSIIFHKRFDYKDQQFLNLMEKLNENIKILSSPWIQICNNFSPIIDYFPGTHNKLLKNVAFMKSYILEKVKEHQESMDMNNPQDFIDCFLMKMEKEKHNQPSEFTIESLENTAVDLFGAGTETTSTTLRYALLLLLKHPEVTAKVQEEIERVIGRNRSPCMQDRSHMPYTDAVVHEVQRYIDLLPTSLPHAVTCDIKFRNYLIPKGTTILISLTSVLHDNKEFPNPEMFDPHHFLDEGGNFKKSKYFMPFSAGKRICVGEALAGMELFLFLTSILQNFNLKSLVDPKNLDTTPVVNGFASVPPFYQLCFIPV
Chain of Cyclin-dependent kinase 5/CDK5 activator 1 (Q00535 whole entry): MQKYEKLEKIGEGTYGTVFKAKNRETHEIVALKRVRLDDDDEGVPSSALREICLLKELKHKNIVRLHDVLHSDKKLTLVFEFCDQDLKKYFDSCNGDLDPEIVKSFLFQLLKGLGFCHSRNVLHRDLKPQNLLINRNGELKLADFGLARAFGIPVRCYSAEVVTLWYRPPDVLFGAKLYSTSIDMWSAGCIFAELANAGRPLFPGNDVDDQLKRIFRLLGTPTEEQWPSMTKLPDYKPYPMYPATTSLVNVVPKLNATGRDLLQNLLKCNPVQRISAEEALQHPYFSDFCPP
Chain of Cyclin-dependent kinase 5/CDK5 activator 1 (Q15078 whole entry, further chain): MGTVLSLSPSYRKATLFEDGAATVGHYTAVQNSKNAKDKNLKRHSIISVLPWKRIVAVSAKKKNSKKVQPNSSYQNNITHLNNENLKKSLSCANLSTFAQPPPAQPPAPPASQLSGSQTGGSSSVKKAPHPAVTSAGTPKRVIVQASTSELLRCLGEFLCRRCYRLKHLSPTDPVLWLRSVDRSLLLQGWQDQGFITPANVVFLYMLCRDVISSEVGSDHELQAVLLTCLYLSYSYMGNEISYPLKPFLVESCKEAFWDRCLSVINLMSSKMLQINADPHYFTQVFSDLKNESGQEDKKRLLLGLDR

CCC(C)(C)C1CCc2n[nH]c(C(=O)NCCN3CCOCC3)c2C1 (centres undefined)
AC50 [1]: 20.9 µM (active)

CCOC(=O)OCC1OC(c2ccccc2)C=CC1Oc1ccc(F)cc1C (centres undefined)
AC50 (Cytochrome P450 2C9): 3.16 µM (inconclusive)

CC(C)C(=O)NNc1ccc(C(F)(F)F)cn1
EC50 [2]: > 55.7 µM (not active)
EC50 [3]: > 55.7 µM (not active)

CC1(C(=O)O)CCC(C(=O)Nc2ccc3ccccc3c2)C1(C)C (centres undefined)
CC50 [4]: > 100 µM (active)
IC50 (Leucine aminopeptidase): 12.5 µM (active)

CCCCOC(=O)c1ccc2c(c1)C1C=CCC1C(C(=O)O)N2 (centres undefined)
IC50 [5]: 10.4 µM (active)
IC50 [6]: 63.3 µM (active)
IC50 [7]: 4.02 µM (active)
IC50 [8]: 41.8 µM (active)
IC50 [9]: > 100 µM (not active)
IC50 [10]: 76.6 µM (active)

COc1ccc(N/N=C/c2c(C(=O)O)ccc3ccccc23)cc1
CC50 [11]: 2 µM (active)
EC50 (cells [12]): 9.66 µM (active)
AC50 (HEK293): 4.56 µM (active)
AC50 [13]: 5.11 µM (active)
IC50 [14]: > 80 µM (inactive)
IC50 [15]: 37 µM (not active)
EC50 (cells [16]): > 350 µM (not active)
CC50 [17]: 0.364 µM (active)
EC50 [18]: 9.27 µM (active)
AC50 (INS1): 0.786 µM (active)
CC50 [19]: 4.9 µM (active)

O=C(O)CCc1ccc(O)c(O)c1 [DIHYDROCAFFEIC ACID]
IC50 [20]: > 50 µM (not active)

— ChEMBL document CHEMBL1201862, “PubChem BioAssay data set” (2004)
